Legend:
[1] = tested on: pigmented rabbits; experiment: Ocular inflammation (vitreous cavity haze) after intravitreal injection of homologous dermal fibroblasts; type: in vivo, rabbit; conditions: graded 3 days after fibroblast injection
Protocol: The principles of laboratory animal care (NIH publication No. 86-23, revised 1985) were followed. For all studies, pigmented rabbits, weighing 2.5-3 kg were used. The animals were anesthetized with a cocktail of ketamine (25 mg/kg) and xylazine (5 mg/kg), and the pupils were dilated with topical 1 % tropicamide and 0.5% phenylephrine.
Vitreous liquefaction was caused by injection of SF6 gas. After an anterior chamber paracentesis (0.1 ml), pure SF6 gas (0.3 ml) was injected. The 30-gauge needle was inserted inferiorly in order to maximize the vitreous liquefaction.
Rabbit dermal fibroblasts were obtained from rabbit rump biopsy material prepared under sterile conditions: Primary cultures were incubated in Dulbecco's modified Eagle's medium (DMEM) with 30% calf serum, antibiotics (penicillin G sodium, streptomycin sulfate) and antimycotics (amphotericin B) under a humid atmosphere of 5% carbon dioxide in air for 72 hours. The medium was then changed to DMEM with 10% calf serum, antibiotics and antimycotics as above. The cultures were passaged weekly. Cells were harvested by incubating them with 3.5 ml of 0.04% trypsin for 4 minutes and collecting the cells in stop media. The dispersed cells were centrifuged at 1,000 rpm for 5 minutes and resuspended in 1 ml of phosphate-buffered saline. After cell counts of a 0.05 ml aliquot, the suspension was diluted to achieve a final concentration of 2.5x10^4 cells in a 0.1 ml of phosphate-buffered saline.
Fourteen days after the injection of SF6 gas, a 30-gauge needle was inserted 3 mm posterior to the corneoscleral limbus in the superonasal quadrant under microscopic control. With the bevel of the needle directed upward, 2.5x10^4 homologous rabbit dermal fibroblasts suspended in 0.1 ml sterile phosphate-buffered saline were injected just in front of the optic nerve head. This was performed in both eyes of all rabbits. The rabbits were immediately placed on their backs for 1 hour to allow the cells to settle over the vitreous surface. […]

[2] = tested on: MAPK; experiment: Western immunoblot analysis of immunoprecipitated tyrosine phosphorylated proteins in the retina: MAPK; type: in vivo, Zucker diabetic fatty rat; conditions: 50 mg/kg intraperitoneally, repeated after two hours; treated group compared with the non-treated animals group
From the text: (§1) Six pair of litter mates of Zucker rats, i.e., six male retired breeder Zucker diabetic fatty (ZDF, fa/fa) rats and six male retired breeder lean Zucker (fa/+) rats, were obtained (Genetic Models, Inc., Indianapolis, IN). The Zucker diabetic fatty rat develops a microvascular retinopathy involving basement membrane thickening of retinal capillaries, pericyte loss, capillary hypercellularity, and increased endothelial intercellular junctions (Danis et al., Invest. Ophthalmol. Vis. Sci. 34:2367-2371 (1993); and Dosso et al., Diabetologia 33:137-144 (1990)). The microvascular changes known to occur in the Zucker diabetic fatty rats are associated with the elevated levels of VEGF and platelet-derived growth factor (PDGF) and with activation of PTK pathways, especially pathways that include phosphatidylinositol-3 kinase (PI3-K) and mitogen-activated protein kinase (MAPK). […] The average blood glucose value was more than 500 mg/dl for the Zucker diabetic fatty rats and 120 mg/dl for the control lean rats as measured by glucose oxidase assay at the time of death (Danis et al. (1993), supra). […]
(§2) The retinal tissue samples were added to immunoprecipitation buffer (1 % Triton X-100, 150 mM NaCl, 10 mM Tris, pH 7.4, 1 mM EGTA, 0.2 mM sodium vanadate, 0.2 mM PMSF, 0.5 % NP-40) and homogenized. […] Protein concentrations were measured by the Pierce BCA method. […]

[3] = tested on: tyrosine phosphorylated proteins; experiment: Western immunoblot analysis of tyrosine phosphorylated proteins in the retina; type: in vivo, Zucker diabetic fatty rat; conditions: 50 mg/kg intraperitoneally, repeated after two hours; diabetic rats compared with the non-treated group
From the text: (§3) Six pair of litter mates of Zucker rats, i.e., six male retired breeder Zucker diabetic fatty (ZDF, fa/fa) rats and six male retired breeder lean Zucker (fa/+) rats, were obtained (Genetic Models, Inc., Indianapolis, IN). The Zucker diabetic fatty rat develops a microvascular retinopathy involving basement membrane thickening of retinal capillaries, pericyte loss, capillary hypercellularity, and increased endothelial intercellular junctions (Danis et al., Invest. Ophthalmol. Vis. Sci. 34:2367-2371 (1993); and Dosso et al., Diabetologia 33:137-144 (1990)). The microvascular changes known to occur in the Zucker diabetic fatty rats are associated with the elevated levels of VEGF and platelet-derived growth factor (PDGF) and with activation of PTK pathways, especially pathways that include phosphatidylinositol-3 kinase (PI3-K) and mitogen-activated protein kinase (MAPK). Each pair of litter mates was between six and seven months of age. Rats were fed with a diet of Purina 5008 rat chow. The animals were treated in accordance with The Association for Research in Vision and Ophthalmology (ARVO) Statement for the Use of Animals in Ophthalmic and Vision Research. The average blood glucose value was more than 500 mg/dl for the Zucker diabetic fatty rats and 120 mg/dl for the control lean rats as measured by glucose oxidase assay at the time of death (Danis et al. (1993), supra). […]

[4] = tested on: 67 kDa band; experiment: Total protein profile of retinal homogenate (gel electrophoresis, Coomassie brilliant blue staining); type: in vivo; conditions: 50 mg/kg intraperitoneally, repeated after two hours; retina taken 24 hours later; Zucker diabetic fatty rat
From the text: as §1, with “(MAPK). Each pair of litter mates was between six and seven months of age. Rats were fed with a diet of Purina 5008 rat chow.” for “(MAPK).”
Protein concentrations were measured by the Pierce BCA method. […]

[5] = tested on: retina; experiment: Retinal toxicity by electroretinography after oral administration; type: in vivo; conditions: orally administered, 75 mg/kg/day to 300 mg/kg/day over a period of six months, Zucker diabetic fatty rats
From the text: (§4) An advantage of genistein is that it is very safe and efficacious. […] Also, no effect of orally administered genistein was found with respect to the weight of the ovaries and the uterus in female rats.

[6] = Food intake, body weight and organ weights after oral administration; type: in vivo, rats
From the text: as §4

[7] = tested on: PCNA; experiment: Western immunoblot analysis of PCNA in the retina; type: in vivo; conditions: 50 mg/kg intraperitoneally, repeated after two hours; Zucker diabetic fatty rat retina; not down to the lean control level
From the text: as §3

[8] = tested on: PI3-K; experiment: Western immunoblot analysis of immunoprecipitated tyrosine phosphorylated proteins in the retina: PI3-K; type: in vivo, Zucker diabetic fatty rat; conditions: 50 mg/kg intraperitoneally, repeated after two hours; especially in the diabetic rat
From the text: as §1, §2

[9] = tested on: PCNA; experiment: Immunohistochemical analysis of PCNA in the retina; type: in vivo; conditions: genistein treated diabetic rats compared with untreated Zucker diabetic fatty rats
Protocol: Two pairs of rats were used for immunohistochemical analysis of PCNA in the retina. Under deep anesthesia with ketamine and xylazine, the four rats were perfused transcardially with 0.1 M phosphate-buffered saline (PBS; pH 7.4) containing 1 mM orthovanadate, followed by perfusion of 2 % paraformaldehyde in 0.1 M PBS for fixation. The eyes were then removed and immersed in the same fixative for 30 min. The anterior segments were removed and the posterior segments were transferred into a graded sucrose solution from 5 % to 15 % for 2 hrs and incubated in 20 % sucrose solution overnight at 4°C. After cryoprotection, the eyes were molded in O.C.T. compound (Miles, Inc., Elkhart, IN) and frozen in isopentane with dry ice. The posterior segments were cut into 8 µm sections.
The sections were treated with 3 % peroxide to block intrinsic peroxidase, and incubated with 2 % normal horse serum for 20 min. After rinsing in 0.1 M PBS three times, the sections were incubated overnight at 4°C with anti-PCNA antibody (1:1,000 dilution). After the incubation, the sections were rinsed in 0.1 M PBS, and incubated with biotinylated anti-mouse IgG antibody (Vector Laboratories, Inc., Burlingame, CA; 1:500 dilution) for 30 min at room temperature, and then incubated with […] streptavidin (Kirkegaad & Perry Laboratories, Inc., Gaithersburg, MD; 1:500 dilution). […]

[10] = oral administration, male and female rats
[11] = orally administered, female rats

SMILES | eyes with severe inflammation (vitreous haze) ([1]; group 1: 23 µg intravitreally 1 hour (prophylactic) after fibroblast injection, control eyes 47.1%, p<0.01) [%] | eyes with severe inflammation (vitreous haze) ([1]; group 2: 23 µg intravitreally 2 days (therapeutic) after fibroblast injection, control eyes 50%, p>0.05) [%] | eyes with severe inflammation (vitreous haze) ([1]; group 3: 11.5 µg intravitreally at 1 hour and again 2 days after fibroblast injection, control eyes 77.8%, p<0.05) [%] | level of tyrosine phosphorylated MAPK at 44 kDa [2] | staining of tyrosine phosphorylated proteins at 50, 66, 97 and 116 kDa [3] | amount of staining of the 67 kDa band in total protein profiles [4] | toxicity to the retina as measured by electroretinography [5] | body weight [6, 10] | food intake [6, 10] | weight of the ovaries [6, 11] | weight of the uterus [6, 11] | level of PCNA at 36 kDa [7] | tyrosine phosphorylated PI3-K stained band at 85 kDa [8] | PCNA immunopositive cells in the retina [9]
COC1C=CC=C(C)C(=O)NC2=CC(=O)C=C(C2=O)C(OC)C(C)CC(OC)C(OC)C(C)C=C(C)C1OC(N)=O (centres unmarked) [HA, Herbimycin A] | 0 | 10 | 22.2 | – | – | – | – | – | – | – | – | – | – | –
O=c1c(-c2ccc(O)cc2)coc2cc(O)cc(O)c12 [genistein, 5,7-dihydroxy-3-(4-hydroxyphenyl)-4H-1-benzopyran-4-one] | – | – | – | decreased | decreased staining at each molecular weight | reduced | nontoxic to the retina | no effect | no effect | no effect | no effect | reduced this increase | reduced | fewer immunopositive cells were detected
